Experimental data reported in patent US20240383901A1, “SUBSTITUTED PYRROLO[2,3-D]PYRIMIDINES, THEIR PREPARATION AND THEIR THERAPEUTIC APPLICATION” (SANOFI, priority 2021, published 2024).

Key:
full-length LRRK2 G2019S = molecular target: T1, full-length LRRK2 G2019S (Homo sapiens, UniProt Q5S007, G2019S); experiment: LRRK2-G2019S kinase activity assay (Lanthascreen TR-FRET); assay type: biochemical; details: 1.1 mM ATP
T1 construct: DYKDDDDK (FLAG)
Experimental: (§1) The potency of compounds was evaluated in vitro using the Lanthascreen® technology (ThermoFisher Scientific).
(§2) In a typical experiment, the reaction assay buffer contains 50 mM Tris pH8.2, 1 mM EGTA, 2.5 mM MgCl2, 0.05% Triton X100, 0.15% BSA and 1 mM DTT. The detection of the assay is performed using 1 nM Terbium labeled anti-phospho-LRRKtide (ThermoFisher Scientific) diluted in a TR-FRET buffer (ThermoFisher Scientific).
(§3) The experimental procedure was performed with Greiner small volume® 384-well. […] The working solution of compounds was prepared in a separate Greiner microplate.
(§4) The kinase reaction was initiated by addition of the ATP/LRRKtide substrate mix diluted in the reaction assay buffer. The reaction mix was incubated for at least 10 minutes at room temperature (initial velocity conditions). Reaction was stopped by addition of Terbium labeled anti-phospho-LRRKtide diluted into the detection buffer supplemented with EDTA (ThermoFisher Scientific). Plates are incubated for at least 30 minutes at room temperature and read on an Envision™ multimode plate reader (PerkinElmer) with LanthaScreen™. The TR-FRET 520:495 nm emission ratio was calculated and used to determine the IC50 value from a dose response curve fit to the 4-parameter logistic equation. The activity with respect to LRRK2 kinase in this test is given by the concentration which inhibits 50% of the LRRK2 activity (or IC50) in nM.

[1] = molecular target: T2, full-length LRRK2 wild type (Homo sapiens, UniProt Q5S007); experiment: LRRK2 WT assay (Assay A, Lanthascreen TR-FRET, 500 uM ATP); assay type: biochemical; details: Assay A (values without *)
T2 construct: DYDDDDK tagged full-length LRRK2 wild type is used
Experimental: as §1, §2, §3, §4

T2 sequence (Q5S007 whole entry): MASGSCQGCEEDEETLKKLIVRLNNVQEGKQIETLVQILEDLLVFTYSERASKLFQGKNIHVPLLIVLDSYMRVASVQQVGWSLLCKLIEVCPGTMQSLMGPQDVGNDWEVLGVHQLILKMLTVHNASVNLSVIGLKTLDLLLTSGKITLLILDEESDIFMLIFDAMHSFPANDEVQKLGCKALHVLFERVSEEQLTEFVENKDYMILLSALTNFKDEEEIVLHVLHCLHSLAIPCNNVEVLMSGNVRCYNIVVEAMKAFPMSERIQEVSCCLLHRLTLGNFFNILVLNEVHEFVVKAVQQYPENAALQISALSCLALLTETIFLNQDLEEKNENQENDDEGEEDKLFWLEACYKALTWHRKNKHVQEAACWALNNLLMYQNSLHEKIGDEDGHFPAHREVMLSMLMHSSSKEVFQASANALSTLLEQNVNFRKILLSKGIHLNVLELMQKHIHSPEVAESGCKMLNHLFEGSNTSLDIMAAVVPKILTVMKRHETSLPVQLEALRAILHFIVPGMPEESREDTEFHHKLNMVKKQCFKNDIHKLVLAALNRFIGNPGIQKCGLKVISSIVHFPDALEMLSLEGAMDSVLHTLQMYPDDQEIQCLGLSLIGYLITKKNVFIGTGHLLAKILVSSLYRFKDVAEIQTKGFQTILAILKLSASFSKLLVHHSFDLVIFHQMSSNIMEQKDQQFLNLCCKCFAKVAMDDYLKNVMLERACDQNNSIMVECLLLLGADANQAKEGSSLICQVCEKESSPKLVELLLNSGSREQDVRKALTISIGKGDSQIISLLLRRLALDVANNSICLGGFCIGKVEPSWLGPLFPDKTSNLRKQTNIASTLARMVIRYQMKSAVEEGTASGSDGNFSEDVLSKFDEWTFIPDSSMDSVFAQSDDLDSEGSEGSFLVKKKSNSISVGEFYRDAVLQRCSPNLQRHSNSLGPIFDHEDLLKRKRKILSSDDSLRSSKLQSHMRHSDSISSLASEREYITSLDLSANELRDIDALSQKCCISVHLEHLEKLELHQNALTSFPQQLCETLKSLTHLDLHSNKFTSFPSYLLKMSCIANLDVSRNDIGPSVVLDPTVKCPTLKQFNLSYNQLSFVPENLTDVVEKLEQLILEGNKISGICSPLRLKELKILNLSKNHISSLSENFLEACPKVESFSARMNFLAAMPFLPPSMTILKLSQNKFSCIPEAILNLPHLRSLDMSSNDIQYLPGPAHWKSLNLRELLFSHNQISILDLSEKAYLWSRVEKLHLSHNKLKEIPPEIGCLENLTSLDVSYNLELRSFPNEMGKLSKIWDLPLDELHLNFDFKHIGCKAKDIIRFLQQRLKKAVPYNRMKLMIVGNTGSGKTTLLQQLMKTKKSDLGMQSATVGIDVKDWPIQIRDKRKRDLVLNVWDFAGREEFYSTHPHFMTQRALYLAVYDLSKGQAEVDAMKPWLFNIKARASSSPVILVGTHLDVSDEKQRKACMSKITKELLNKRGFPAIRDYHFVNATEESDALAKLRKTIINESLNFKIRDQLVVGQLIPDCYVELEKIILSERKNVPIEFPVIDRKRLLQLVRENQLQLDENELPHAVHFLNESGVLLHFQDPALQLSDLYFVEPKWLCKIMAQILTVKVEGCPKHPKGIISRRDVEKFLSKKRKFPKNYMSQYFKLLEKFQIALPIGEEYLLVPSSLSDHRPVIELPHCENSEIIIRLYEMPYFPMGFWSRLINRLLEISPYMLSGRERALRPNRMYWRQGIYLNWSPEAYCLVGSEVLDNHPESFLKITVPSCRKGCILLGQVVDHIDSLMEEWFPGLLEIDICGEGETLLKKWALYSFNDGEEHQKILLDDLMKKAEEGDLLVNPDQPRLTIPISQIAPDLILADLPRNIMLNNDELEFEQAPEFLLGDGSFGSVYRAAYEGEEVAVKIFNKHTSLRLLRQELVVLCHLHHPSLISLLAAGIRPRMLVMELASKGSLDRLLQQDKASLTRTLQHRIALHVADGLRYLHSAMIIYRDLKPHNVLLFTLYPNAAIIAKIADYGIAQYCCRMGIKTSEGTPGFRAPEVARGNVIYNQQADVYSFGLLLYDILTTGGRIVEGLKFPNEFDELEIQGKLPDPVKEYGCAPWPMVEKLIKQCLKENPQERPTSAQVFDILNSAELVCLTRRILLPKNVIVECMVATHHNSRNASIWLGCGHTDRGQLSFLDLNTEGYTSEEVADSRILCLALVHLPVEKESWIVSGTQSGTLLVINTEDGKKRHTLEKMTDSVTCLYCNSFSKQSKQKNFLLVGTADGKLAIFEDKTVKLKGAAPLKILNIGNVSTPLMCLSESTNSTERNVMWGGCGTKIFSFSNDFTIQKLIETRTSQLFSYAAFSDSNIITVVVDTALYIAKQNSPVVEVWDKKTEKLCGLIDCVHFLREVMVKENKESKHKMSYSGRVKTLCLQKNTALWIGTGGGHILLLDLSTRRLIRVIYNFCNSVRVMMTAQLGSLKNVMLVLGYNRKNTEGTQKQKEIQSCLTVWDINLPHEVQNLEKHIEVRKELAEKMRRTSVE
T1 sequence (Q5S007 whole entry G2019S): as the sequence (Q5S007 whole entry) above, with G2019S counted along it

Structure (SMILES) | IC50 (full-length LRRK2 G2019S) | IC50 [1]
COCn1cc(Nc2ncc3cc(C#N)n([C@H]4COC[C@@H]4C)c3n2)c(O[C@@H]2CO[C@H]2C)n1 (mixture of isomers) [Example 39, 2-[[1-(methoxymethyl)-3-[(trans)-2-methyloxetan-3-yl]oxy-pyrazol-4-yl]amino]-7-[(3R,4R)-4-methyltetrahydrofuran-3-yl]pyrrolo[2,3-d]pyrimidine-6-carbonitrile] | 8 nM | 10 nM
CO[C@H]1COC[C@H]1n1c(C#N)cc2cnc(Nc3cn(C4COC4)nc3OC(C)C(F)(F)F)nc21 (mixture of isomers) [Example 54, 7-((3R,4R)-4-Methoxytetrahydrofuran-3-yl)-2-((1-(oxetan-3-yl)-3-((1,1,1-trifluoropropan-2-yl)oxy)-1 H-pyrazol-4-yl)amino)-7H-pyrrolo[2,3-d]pyrimidine-6-carbonitrile] | 27 nM | 61 nM
[2H]C([2H])([2H])n1cc(Nc2ncc3cc(C#N)n(C4COCC4C)c3n2)c(OC2CCC2(C)O)n1 (mixture of isomers) [Example 142, 2-((3-((1S,2S)-2-hydroxy-2-methylcyclobutoxy)-1-(methyl-d3)-1 H-pyrazol-4-yl)amino)-7-((3R,4R)-4-methyltetrahydrofuran-3-yl)-7H-pyrrolo[2,3-d]pyrimidine-6-carbonitrile and 2-((3-((1 R,2R)-2-hydroxy-2-methylcyclobutoxy)-1-(methyl-d3)-1 H-pyrazol-4-yl)amino)-7-((3R,4R)-4-methyltetrahydrofuran-3-yl)-7H-pyrrolo[2,3-d]pyrimidine-6-carbonitrile] | 5 nM | 3 nM
COC[C@H](C)n1c(C#N)cc2cnc(Nc3cn(CCO)nc3OC3CCOC3)nc21 (mixture of isomers) [Example 151, 2-((1-(2-hydroxyethyl)-3-((tetrahydrofuran-3-yl)oxy)-1 H-pyrazol-4-yl)amino)-7-((S)-1-methoxypropan-2-yl)-7H-pyrrolo[2,3-d]pyrimidine-6-carbonitrile] | 27 nM | 31 nM
CC(C(F)F)n1cc(Nc2ncc3cc(C#N)n([C@H]4COC[C@@H]4C)c3n2)c(OC2CC2)n1 (mixture of isomers) [Example 43, 2-((3-cyclopropoxy-1-(1,1-difluoropropan-2-yl)-1H-pyrazol-4-yl)amino)-7-((3R,4R)-4-methyltetrahydrofuran-3-yl)-7H-pyrrolo[2,3-d]pyrimidine-6-carbonitrile] | 1 nM | 2 nM
CC(C)Oc1nn(C)cc1Nc1ncc2cc(C#N)n([C@@H]3COC[C@@H]3C)c2n1 (racemic) [Example 47, 2-((3-isopropoxy-1-methyl-1 H-pyrazol-4-yl)amino)-7-((cis)-4-methyltetrahydrofuran-3-yl)-7H-pyrrolo[2,3-d]pyrimidine-6-carbonitrile] | 31 nM | 36 nM
CO[C@@H]1COC[C@H]1n1c(C#N)cc2cnc(Nc3cn(C)nc3OC3COC3)nc21 (racemic) [Example 70, 7-((trans)-4-methoxytetrahydrofuran-3-yl)-2-((1-methyl-3-(oxetan-3-yloxy)-1 H-pyrazol-4-yl)amino)-7H-pyrrolo[2,3-d]pyrimidine-6-carbonitrile] | 160 nM | 270 nM
CO[C@@H]1COC[C@H]1n1c(C#N)cc2cnc(Nc3ccc(C(C)(C)O)cc3OC3COC3)nc21 (racemic) [Example 71, 2-((4-(2-hydroxypropan-2-yl)-2-(oxetan-3-yloxy)phenyl)amino)-7-((trans)-4-methoxytetrahydrofuran-3-yl)-7H-pyrrolo[2,3-d]pyrimidine-6-carbonitrile] | 69 nM | 109 nM
C[C@@H]1COC[C@H]1Oc1nn(C)cc1Nc1ncc2cc(C#N)n([C@H]3COC[C@@H]3C)c2n1 (single isomer, unassigned) [Example 2] | 5 nM | 5 nM
C[C@@H]1COC[C@H]1Oc1nn(C)cc1Nc1ncc2cc(C#N)n([C@H]3COC[C@@H]3C)c2n1 (single isomer, unassigned) [Example 3] | 4 nM | 5 nM
CC(C(F)F)n1cc(Nc2ncc3cc(C#N)n([C@H]4COC[C@@H]4C)c3n2)c(OC2COC2)n1 (single isomer, unassigned) [Example 4] | 1 nM | 1 nM
CC(C(F)F)n1cc(Nc2ncc3cc(C#N)n([C@H]4COC[C@@H]4C)c3n2)c(OC2COC2)n1 (single isomer, unassigned) [Example 5] | 5 nM | 4 nM
C[C@@H]1OC[C@H]1Oc1nn(C)cc1Nc1ncc2cc(C#N)n([C@H]3COC[C@@H]3C)c2n1 (single isomer, unassigned) [Example 6] | 4 nM | 5 nM
C[C@@H]1OC[C@H]1Oc1nn(C)cc1Nc1ncc2cc(C#N)n([C@H]3COC[C@@H]3C)c2n1 (single isomer, unassigned) [Example 7] | 2 nM | 2 nM
CC(Oc1nn(C2COC2)cc1Nc1ncc2cc(C#N)n([C@H]3COC[C@@H]3C)c2n1)C(F)(F)F (single isomer, unassigned) [Example 10] | 1 nM | 1 nM
CC(Oc1nn(C2COC2)cc1Nc1ncc2cc(C#N)n([C@H]3COC[C@@H]3C)c2n1)C(F)(F)F (single isomer, unassigned) [Example 11] | 19 nM | 27 nM
CO[C@@H]1COC[C@H]1Oc1nn(C)cc1Nc1ncc2cc(C#N)n([C@H]3COC[C@@H]3C)c2n1 (single isomer, unassigned) [Example 12] | 6 nM | 8 nM
CO[C@@H]1COC[C@H]1Oc1nn(C)cc1Nc1ncc2cc(C#N)n([C@H]3COC[C@@H]3C)c2n1 (single isomer, unassigned) [Example 13] | 9 nM | 13 nM
CC(Oc1nn(C)cc1Nc1ncc2cc(C#N)n([C@H]3COC[C@@H]3C)c2n1)C(F)(F)F (single isomer, unassigned) [Example 21] | 1 nM | 1 nM
CC(Oc1nn(C)cc1Nc1ncc2cc(C#N)n([C@H]3COC[C@@H]3C)c2n1)C(F)(F)F (single isomer, unassigned) [Example 22] | 25 nM | 30 nM
[2H]C([2H])([2H])n1cc(Nc2ncc3cc(C#N)n([C@H]4COC[C@@H]4C)c3n2)c(O[C@H]2CO[C@H]2C)n1 (single isomer, unassigned) [Example 23] | 8 nM | 10 nM
C[C@H]1COC[C@H]1n1c(C#N)cc2cnc(Nc3cn(C)nc3OC3COC3)nc21 (single isomer, unassigned) [Example 45, 2-((1-methyl-3-(oxetan-3-yloxy)-1 H-pyrazol-4-yl)amino)-7-((cis)-4-methyltetrahydrofuran-3-yl)-7H-pyrrolo[2,3-d]pyrimidine-6-carbonitrile] | 35 nM | 46 nM
COC[C@H](C)n1c(C#N)cc2cnc(Nc3cn(C)nc3O[C@@H]3CO[C@H]3C)nc21 (single isomer, unassigned) [Example 87] | – | 8 nM
[2H]C([2H])([2H])n1cc(Nc2ncc3cc(C#N)n([C@@H](C)COC)c3n2)c(O[C@@H]2CO[C@H]2C)n1 (single isomer, unassigned) [Example 89] | – | 9 nM
